The results in this text go back to patent EP0839799A1, “2-HYDROXYPHENYLALKYLAMINE DERIVATIVES AND MAILLARD REACTION INHIBITORS” (KISSEI PHARMACEUTICAL CO., LTD., priority 1995, dated 1996).

Data set [1] relates to lysozyme. The data set is described as follows: Maillard reaction inhibiting activity test (lysozyme and fructose, dimer formation by SDS-PAGE/densitometry). Type of data set: biochemical. Particulars: lysozyme 10 mg/ml, fructose 200mM, 0.5M sodium phosphate buffer pH7.4, 37°C, 1 week, inhibition of lysozyme dimer formation; for Inhibiting Activity (%) Concentration (0.2mM): test compound 0.2mM; for Inhibiting Activity (%) Concentration (2mM): test compound 2mM. The protocol: The test compound (0.2mM or 2mM), lysozyme (lOmg/ml) and fructose (200mM) were dissolved in 0.5M sodium phosphate buffer (pH7.4), and the solution was incubated at 37°C for l week. After incubation, the sample was separated by SDS-PAGE and stained with Coomassie Brilliant Blue R-250. The percentage of formed dimer to total proteins was measured by densitometry. Inhibiting activities of the test compounds were evaluated from comparing the percentage of formed dimer in the presence of the test compound with that in the absence of the test compound.

The subject of data set [2] is AGE content in plasma proteins. The data set is described as follows: Inhibition assay for AGE formation in vivo (AGE content in plasma proteins by ELISA using anti-AGE antibody). The arrangement: species or system male SD rats. The following applies: STZ-induced diabetic rats, 4 weeks, relative to untreated rats (as 100% control). The procedure:
Diabetes was induced in male SD rats, 6 weeks of age, by intravenous single injection of streptozotocin (STZ) (50mg/kg) into tail. One week after diabetes induction, α -amino-2-hydroxyphenylacetic acid.hydrochloride or aminoguanidine was given to the diabetic rats by daily oral administration at dosage of 50mg/kg or lOOmg/kg. After 4 weeks of administration, blood samples were collected and AGE content in plasma proteins was measured by ELISA using anti-AGE antibody. AGE content in drug-treated rats were estimated compared with the average content of untreated rats (as 100% control).

Data set [3] deals with Male SD rats. The data set is described as follows: Acute toxicity test. Format: in vivo. Particulars: for hematological examinations / death: 2000 mg/kg; for death: single administration 2000 mg/kg, until 7 days after administration. The protocol: Male SD rats, 6 weeks of age and weighing between 140g and 165 g, were conditioned to an overnight fast. α -Amino-2 hydroxyphenylacetic acid.hydrochloride suspended in 0.5% of CMC were given to the rats at a dosage of 2000 mg/kg. Control group rats received 0.5% of CMC alone.
Six hours after administration, all rats were allowed free access to food and water. Seven days after administration, blood samples were collected and tested with hematological examinations. Plasma samples were tested with blood biochemical examinations.

The subject of data set [4] is Male SD rats. The data set is described as follows: Toxicity test by long-term administration. Format: in vivo. The procedure: Male SD rats, 6 weeks of age, received STZ (50mg/kg) by single intravenous injection into the tail and were made diabetic. One week after STZ injection, α -amino-2-hydroxyphenylacetic acid-hydrochloride suspended in 0.5% of CMC was given to the diabetic rats by daily oral administration at a dosage of lOOmg/kg. Rats in the control group received O.5% of CMC alone. Compared with the control group, significant reduction in weight and significant increase in number of dead animals were not observed until ten weeks after administration.

Setting [5] is: STZ diabetic rats, 100mg/kg daily oral, until ten weeks, versus control group.

Consider `CN(C)C(=O)C(N)c1ccccc1O` (stereo not drawn) [Example 6, N,N-Dimethyl-α -amino-2-hydroxyphenylacetamide], for which, in data set [1], the “Inhibiting Activity (%) Concentration (0.2mM)” value was 13.0% and the “Inhibiting Activity (%) Concentration (2mM)” value is recorded as 82.1%.
On the same counts, the results for `NC(=O)C(N)c1ccccc1O` (stereo not drawn) [Example 7, α -Amino-2-hydroxyphenylacetamide] are 38.7% and 89.3%.
`NC(CC(=O)O)c1ccccc1O` (centres unmarked) [Example 10, 3-Amino-3-(2-hydroxyphenyl)propionic acid]: in data set [1], the “Inhibiting Activity (%) Concentration (0.2mM)” value is 15.0%.
With `COc1ccc(O)c(C(N)C(=O)O)c1.Cl` (stereo not drawn) [Example 4, α -Amino-2-hydroxy-5-methoxyphenylacetic acid-hydrochloride], in data set [1], the “Inhibiting Activity (%) Concentration (0.2mM)” value is recorded as 30.9% and the “Inhibiting Activity (%) Concentration (2mM)” value is 87.4%.
In data set [2] (aminoguanidine daily oral, dose not stated in the table (50mg/kg or 100mg/kg per method)), `N=C(N)NN` [aminoguanidine, reference compound] gave an AGE content of 88.8%. In data set [1], the “Inhibiting Activity (%) Concentration (0.2mM)” value is recorded as 2.9% and the “Inhibiting Activity (%) Concentration (2mM)” value is on record as 17.2%.
For the molecule `Cl.NC(C(=O)NCc1ccccc1)c1ccccc1O` (stereo not drawn) [Example 8, N-Benzyl-α-amino-2-hydroxyphenylacetamide-hydrochloride], in data set [1], the “Inhibiting Activity (%) Concentration (0.2mM)” value was 13.9% and the “Inhibiting Activity (%) Concentration (2mM)” value is given as 55.3%.
As for `COC(=O)C(N)c1cc(O)ccc1O` (stereo not drawn) [Example 5, Methyl α -amino-2,5-dihydroxyphenylacetate], the “Inhibiting Activity (%) Concentration (2mM)” value in data set [1] is recorded as 48.3%.
Regarding `COC(=O)C(N)c1ccccc1O.Cl` (stereo not drawn) [Example 2, Methyl α -amino-2-hydroxyphenylacetate-hydrochloride], in data set [1], the “Inhibiting Activity (%) Concentration (0.2mM)” value turned out to be 30.6% and the “Inhibiting Activity (%) Concentration (2mM)” value is 67.5%.
Regarding `Cl.NC(C(=O)O)c1ccccc1O` (stereo not drawn) [Example 1, α -Amino-2-hydroxyphenylacetic acid.hydrochloride], the blood biochemical examinations result in data set [3] (2000 mg/kg single dose, seven days after administration, versus control group) is given as “no significant difference was observed”. Further, the hematological examinations entry in data set [3] (2000 mg/kg single dose, seven days after administration, versus control group, listed as α -Amino-2 hydroxyphenylacetic acid.hydrochloride) is “no significant difference was observed”; in data set [3] (2000 mg/kg single dose, seven days after administration, versus control group, listed as α -amino-2-hydroxyphenylacetic acid hydrochloride), “a significant effect was not observed”. Further, the behavior disorder entry in data set [3] (2000 mg/kg single dose, until 6 hours after administration) is given as “behavior disorder was not observed”. Further, the death result was “all animals did not die” in data set [3] (listed as α -Amino-2 hydroxyphenylacetic acid.hydrochloride) and “no death was observed” in data set [3] (listed as α -amino-2-hydroxyphenylacetic acid hydrochloride). Further, the AGE content in data set [2] (50 mg/kg daily oral) came out at 81.6%; in data set [2] (100mg/kg daily oral) it was 62.4%. In addition, the “Inhibiting Activity (%) Concentration (0.2mM)” value in data set [1] was determined as 21.2%. Moreover, the “Inhibiting Activity (%) Concentration (2mM)” value in data set [1] was found to be 86.1%. In data set [4] (setting [5]), the “increase in number of dead animals” value is listed as “not observed”. The reduction in weight result in data set [4] (setting [5]) was “not observed”. For the same molecule, the “toxicity and side effects” value in data set [4] (rats, 100mg/kg/day for ten consecutive weeks) is “significant toxicity and side effects were not observed”.
Regarding `Cl.NC(C(=O)NCCc1ccccc1)c1ccccc1O` (stereo not drawn) [Example 9, N-(2-Phenethyl)-α-amino-2-hydroxyphenylacetamidehydrochloride], the “Inhibiting Activity (%) Concentration (2mM)” value in data set [1] was determined as 80.0%.
With `Cl.NC(C(=O)O)c1cc(Cl)ccc1O` (stereo not drawn) [Example 3, α -Amino-5-chloro-2-hydroxyphenylacetic acid-hydrochloride], in data set [1], the “Inhibiting Activity (%) Concentration (0.2mM)” value was 38.8% and the “Inhibiting Activity (%) Concentration (2mM)” value was 88.4%.
`Cl.NC(=O)C(N)c1ccccc1O` (stereo not drawn) [Example 14, α -Amino-2-hydroxyphenylacetamide-hydrochloride]: in data set [1], the “Inhibiting Activity (%) Concentration (0.2mM)” value is 21.4% and the “Inhibiting Activity (%) Concentration (2mM)” value amounted to 87.6%.
On the same counts, the results for `NC(C(=O)O)c1ccccc1O` (single isomer, unassigned) [Example 12, α -Amino-2-hydroxyphenylacetic acid (optical isomer)] are 22.4% and 83.5%.
Taken in the same sequence, the figures for `NC(C(=O)O)c1ccccc1O` (single isomer, unassigned) [Example 13, α -Amino-2-hydroxyphenylacetic acid (optical isomer)] were 24.0% and 86.3%.
`CC(C)OC(=O)CCC(N)c1ccccc1O.Cl` (centres unmarked) [Example 15, Isopropyl 4-amino-4-(2-hydroxyphenyl)butyrate.hydrochloride]: the “Inhibiting Activity (%) Concentration (0.2mM)” value in data set [1] was 2.7%.
